Like-named read-outs stand apart in the source and are kept apart here.
How the values were obtained:
[1] = biological target: T1, LAR (Homo sapiens, UniProt P10586); test: Inhibition of human recombinant tyrosine phosphatase LAR (DiFMUP fluorescence); assay type: biochemical
T1 sequence (P10586 1352-1607 limits assumed): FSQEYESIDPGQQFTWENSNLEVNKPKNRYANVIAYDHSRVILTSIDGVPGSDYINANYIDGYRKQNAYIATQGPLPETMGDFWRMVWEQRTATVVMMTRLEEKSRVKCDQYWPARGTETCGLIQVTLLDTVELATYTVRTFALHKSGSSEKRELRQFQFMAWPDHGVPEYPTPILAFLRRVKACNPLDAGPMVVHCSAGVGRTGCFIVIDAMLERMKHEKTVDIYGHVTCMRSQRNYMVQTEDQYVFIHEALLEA
Procedure: (§1) To determine the ability of the tested compounds for inhibition tyrosine phosphatases, human recombinant proteins were used (Sigma-Aldrich). The reactions were performed in black opaque 384-well microplates (PerkinElmer, Waltham, MA, USA). An equal volume of phosphatase solution in a reaction buffer (25 mM of 3-(N-morpholino)propanesulfonic acid (MOPS), 50 mM NaCl, 1 mM dithiothreitol (DTT), and 0.05% Tween-20 (pH 7.0)) was added to the solution of the tested compound on microplate. These solutions were dispensed using an automated injector. The following final concentrations of the tested phosphatases were used: PTP1B 50 ng/mL, SHP1 400 ng/mL, SHP2 50 ng/mL, LAR 5 ng/mL, and PTPRA 100 ng/mL. After 10 min, a solution of phosphate 6,8-difluoro-4-methyl (DiFMUP; Thermo Fisher Scientific) was added until its final concentration was 0.1 mM. Samples were incubated for 20 miN at 23 °C, and then the measurements of fluorescence intensity (excitation 355 and emission […]) were performed on a multifunctional plate reader POLARstar Omega (BMG Labtech, Ortenberg, Germany). Assays were performed in triplicate. For the screening assays, the final concentration of the tested compounds was 1 µM. The results were expressed as percent inhibition of untreated control (enzyme with vehicle only) for the screening tests. […] IC50 were calculated using GraphPad Prism version 6.0 software (GraphPad Software, Boston, MA, USA).

[2] = biological target: T2, SHP2 (Homo sapiens, UniProt Q06124); test: Inhibition of human recombinant tyrosine phosphatase SHP2 (DiFMUP fluorescence); assay type: biochemical
T2 construct: purchased Sigma-Aldrich
T2 sequence (Q06124 1-593): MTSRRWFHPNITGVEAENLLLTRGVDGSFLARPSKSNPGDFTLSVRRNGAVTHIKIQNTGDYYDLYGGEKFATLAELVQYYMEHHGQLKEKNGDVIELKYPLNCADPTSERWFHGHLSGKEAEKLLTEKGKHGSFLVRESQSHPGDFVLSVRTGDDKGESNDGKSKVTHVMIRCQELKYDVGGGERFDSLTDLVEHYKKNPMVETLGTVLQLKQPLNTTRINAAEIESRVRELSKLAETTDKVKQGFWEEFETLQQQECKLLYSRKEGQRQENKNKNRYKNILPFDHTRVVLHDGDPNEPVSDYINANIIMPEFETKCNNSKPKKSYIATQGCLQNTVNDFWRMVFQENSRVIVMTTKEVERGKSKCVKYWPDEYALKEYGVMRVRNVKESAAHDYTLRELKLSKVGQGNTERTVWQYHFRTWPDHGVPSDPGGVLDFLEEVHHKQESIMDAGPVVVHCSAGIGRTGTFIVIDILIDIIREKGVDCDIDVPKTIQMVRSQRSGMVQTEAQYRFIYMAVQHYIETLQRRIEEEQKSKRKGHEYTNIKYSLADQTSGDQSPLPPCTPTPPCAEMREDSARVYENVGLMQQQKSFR
Procedure: as §1

[3] = biological target: T3, PTP1B (Homo sapiens, UniProt P18031); test: Inhibition of human recombinant tyrosine phosphatase PTP1B (DiFMUP fluorescence); assay type: biochemical; settings: for Inhibition of PTP1B, percentage of inhibition of the control: 1 µM, control solvent only, SD did not exceed 6%; for Log IC50 ± SD PTP1B: logarithm of IC50
T3 construct: purchased Sigma-Aldrich
T3 sequence (P18031 1-435): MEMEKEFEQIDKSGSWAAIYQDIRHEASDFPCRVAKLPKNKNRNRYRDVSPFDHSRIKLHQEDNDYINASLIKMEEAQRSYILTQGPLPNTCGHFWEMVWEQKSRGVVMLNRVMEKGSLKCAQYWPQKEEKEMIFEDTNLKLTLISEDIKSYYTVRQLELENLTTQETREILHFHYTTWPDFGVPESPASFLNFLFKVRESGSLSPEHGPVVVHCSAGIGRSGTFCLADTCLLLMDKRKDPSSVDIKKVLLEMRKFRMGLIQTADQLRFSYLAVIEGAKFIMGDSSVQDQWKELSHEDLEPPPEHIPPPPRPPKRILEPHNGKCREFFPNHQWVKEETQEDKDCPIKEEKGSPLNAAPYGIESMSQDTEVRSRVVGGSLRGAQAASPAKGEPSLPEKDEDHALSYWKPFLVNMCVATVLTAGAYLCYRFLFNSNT
Procedure: as §1

[4] = biological target: T4, SHP1 (Homo sapiens, UniProt P29350); test: Inhibition of human recombinant tyrosine phosphatase SHP1 (DiFMUP fluorescence); assay type: biochemical; settings: for Log IC50 ± SD SHP1: logarithm of IC50
T4 construct: purchased Sigma-Aldrich
Procedure: as §1

[5] = biological target: PP2A (Homo sapiens, UniProt P67775); test: Inhibition of human recombinant non-tyrosine phosphatase PP2A (DiFMUP); assay type: biochemical
Procedure: (§2) For the inhibition assay of non-tyrosine phosphatases, human recombinant proteins were used (Sigma-Aldrich). The reactions were performed in black opaque 384-well microplates (PerkinElmer). To the solution of the tested complexes, an equal volume of a test solution of phosphatase was added. CDC25A were diluted in reaction buffer to the final concentration of 400 ng/mL as for tyrosine phosphatases (described in the section above), and PPA2 (final 0.5 U/mL) was diluted in 50 mM Tris-HCl, 0.05% Tween-20, and 125 µg/mL protease-free bovine serum albumin (pH 7.0). These solutions were dispensed using an automated injector. After 10 min, a solution of phosphate 6,8-difluoro-4-methyl (DiFMUP; Thermo Fisher Scientific) was added for the PPA2 sample until the final concentration 0.1 mM. For CDC25A samples, 3-O-methylfluorescein phosphate for the final concentration of 0.2 mM was added. Samples were incubated for 180 min at 23 °C, and then the measurements of fluorescence intensity (excitation 355 and emission 560 nm) were performed on a multifunctional plate reader POLARstar Omega (BMG Labtech). Assays were performed in triplicate. The results were expressed as percent of inhibition of untreated control (enzyme with vehicle solvent only).

[6] = biological target: T5, CDC25A (Homo sapiens, UniProt P30304); test: Inhibition of human recombinant non-tyrosine phosphatase CDC25A (3-O-methylfluorescein phosphate); assay type: biochemical
T5 construct: purchased Sigma-Aldrich
T5 sequence (P30304 1-524): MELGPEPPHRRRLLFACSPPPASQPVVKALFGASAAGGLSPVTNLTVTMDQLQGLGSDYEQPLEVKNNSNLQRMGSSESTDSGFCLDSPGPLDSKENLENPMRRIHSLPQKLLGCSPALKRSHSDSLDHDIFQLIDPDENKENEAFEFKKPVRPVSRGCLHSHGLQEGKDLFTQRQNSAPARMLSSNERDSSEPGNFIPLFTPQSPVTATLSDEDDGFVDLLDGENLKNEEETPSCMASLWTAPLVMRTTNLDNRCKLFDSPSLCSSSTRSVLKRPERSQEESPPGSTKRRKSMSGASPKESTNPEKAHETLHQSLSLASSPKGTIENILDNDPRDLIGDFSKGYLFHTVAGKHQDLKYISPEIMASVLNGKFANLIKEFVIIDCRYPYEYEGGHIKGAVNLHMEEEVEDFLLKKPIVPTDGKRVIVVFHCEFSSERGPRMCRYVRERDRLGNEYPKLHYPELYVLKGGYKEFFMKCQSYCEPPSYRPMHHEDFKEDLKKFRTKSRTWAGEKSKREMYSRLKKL
Procedure: as §2

[7] = test system: myocytes C2C12; test: Viability of myocytes C2C12 after 24 h incubation (resazurin-based reagent); settings: 50 µM
Procedure: Simultaneously with glucose consumption tests, the viability of myocytes C2C12 was examined due to their prolonged 24 h incubation with vanadium complexes.
Prolonged incubation of the cells with vanadium complexes, as was the case during the study of the effect on glucose consumption, more closely corresponds to the actual conditions of clinical use, also allowing for the identification of possible cytotoxic effects. […] A Resazurin-based reagent is reduced proportionally to the metabolic activity of cells as a result of the transference of electrons from NADPH+H^+, the amount of which strictly depends on glucose metabolism.

[8] = 1 µM, control solvent only, SD did not exceed 6%

Chain of PP2A (P67775 whole entry): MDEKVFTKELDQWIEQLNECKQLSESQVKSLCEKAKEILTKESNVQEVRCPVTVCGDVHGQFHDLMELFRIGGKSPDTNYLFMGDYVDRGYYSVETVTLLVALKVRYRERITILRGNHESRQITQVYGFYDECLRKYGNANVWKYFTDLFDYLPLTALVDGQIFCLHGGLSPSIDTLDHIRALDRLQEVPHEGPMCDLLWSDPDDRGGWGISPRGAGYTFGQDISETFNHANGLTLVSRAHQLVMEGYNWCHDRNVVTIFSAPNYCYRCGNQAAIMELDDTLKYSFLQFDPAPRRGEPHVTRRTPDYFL
T4 sequence (P29350 whole entry): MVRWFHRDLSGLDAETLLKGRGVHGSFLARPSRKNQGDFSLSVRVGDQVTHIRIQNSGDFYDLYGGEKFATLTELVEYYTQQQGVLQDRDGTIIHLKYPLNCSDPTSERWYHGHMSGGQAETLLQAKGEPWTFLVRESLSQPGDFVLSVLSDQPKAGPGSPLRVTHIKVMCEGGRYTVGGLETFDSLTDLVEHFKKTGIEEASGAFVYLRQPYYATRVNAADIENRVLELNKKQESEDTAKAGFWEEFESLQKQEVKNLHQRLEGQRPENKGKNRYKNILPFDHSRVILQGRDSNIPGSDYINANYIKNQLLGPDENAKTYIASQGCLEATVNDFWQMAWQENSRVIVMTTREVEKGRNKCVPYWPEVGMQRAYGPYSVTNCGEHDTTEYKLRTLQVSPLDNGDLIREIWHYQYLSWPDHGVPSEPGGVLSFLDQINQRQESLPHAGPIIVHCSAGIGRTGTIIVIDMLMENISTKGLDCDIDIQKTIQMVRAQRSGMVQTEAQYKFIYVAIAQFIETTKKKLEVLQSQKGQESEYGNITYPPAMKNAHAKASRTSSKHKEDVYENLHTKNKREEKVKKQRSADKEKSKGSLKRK

Compound	Inhibition of LAR, percentage of inhibition of the control [1, 8]	Inhibition of SHP2, percentage of inhibition of the control [2, 8]	Inhibition of PTP1B, percentage of inhibition of the control [3]	Inhibition of SHP1, percentage of inhibition of the control [4, 8]	IC50 [1]	Inhibition of PP2A, percentage inhibition of control ± SD ([5]; 1 µM)	Inhibition of PP2A, percentage inhibition of control ± SD ([5]; 10 µM)	Inhibition of CDC25A, percentage inhibition of control ± SD ([6]; 1 µM)	Inhibition of CDC25A, percentage inhibition of control ± SD ([6]; 10 µM)	Log IC50 ± SD PTP1B [3]	IC50 ([3]; read-out: IC50 PTP1B)	Log IC50 ± SD SHP1 [4]	other results
CCC(C)C(N=C(C)CC(=S)Nc1ccccc1)C(=O)[O][V](=[O])([Cl])[Cl] (racemic) [VC109, [VOCl2(L5)]·3HCl]	56%	83%	70%	80%	–	–	–	–	–	–	–	–	–
Cc1ccc(C(=O)Nc2ccc(S(=O)(=O)O)c3cc(S(=O)(=O)O)cc(S(=O)(=O)O)c23)cc1NC(=O)c1cccc(NC(=O)Nc2cccc(C(=O)Nc3cc(C(=O)Nc4ccc(S(=O)(=O)O)c5cc(S(=O)(=O)O)cc(S(=O)(=O)O)c45)ccc3C)c2)c1 [Suramin, reference compound]	–	–	–	–	–	–	–	–	–	–	–	–	inhibition at 1 µM ([1]; 1 µM, control solvent only, SD did not exceed 6%, read-out: Inhibition of LAR, percentage of inhibition of the control): 9%; inhibition at 1 µM ([2]; 1 µM, control solvent only, SD did not exceed 6%, read-out: Inhibition of SHP2, percentage of inhibition of the control): 10%; inhibition at 1 µM ([3]; read-out: Inhibition of PTP1B, percentage of inhibition of the control): 7%; inhibition at 1 µM ([4]; 1 µM, control solvent only, SD did not exceed 6%, read-out: Inhibition of SHP1, percentage of inhibition of the control): 17%
O.[O]=[V]1[O]C(c2ccc(O)cc2)=NN=Cc2cc(Br)ccc2[O]1.c1cnc2c(c1)ccc1cccnc12 [VC046, [VO(L9)(phen)]⋅2H2O]	37%	66%	34%	62%	–	–	–	–	–	–	–	–	–
CC(C)(C)c1ccc(C2=NN=Cc3cc(Br)ccc3[O][V](=[O])[O]2)cc1.O.c1cnc2c(c1)ccc1cccnc12 [VC048, [VO(L10)(phen)]⋅0.5H2O]	35%	64%	36%	62%	–	–	–	–	–	–	–	–	–
[O]=[V]1[O]C(c2ccc(Cl)cc2)=NN=Cc2cc(Br)ccc2[O]1.c1cnc2c(c1)ccc1cccnc12 [VC050, [VO(L11)(phen)]]	19%	57%	25%	53%	1710 nM	24 ± 3%	51 ± 4%	12 ± 8%	38 ± 1%	−5.37 ± 0.03	4260 nM	−6.18 ± 0.03	IC50 [2]: 273 nM; IC50 [4]: 657 nM
CC(CC(=S)Nc1ccccc1)=NC(Cc1c[nH]c2ccccc12)C(=O)[O][V](=[O])([Cl])[Cl] (stereo not shown) [VC054, [VOCl2(L1)]·1.5Et2O ·6.5HCl]	67%	87%	78%	84%	112 nM	41 ± 15%	75 ± 7%	51 ± 2%	65 ± 3%	−6.85 ± 0.01	141 nM	−7.56 ± 0.02	IC50 ([3]; read-out: IC50 for PTP1B): 140 nM; Cell viability of myocytes C2C12, % of the control [7]: 84 ± 8%
C1CCOC1.CSCCC1C(=O)[O][V](=[O])([Cl])([Cl])[N]1C(C)=CC(=S)Nc1ccccc1.Cl (stereo not shown) [VC073, [VOCl2(L4)]·1.5THF·3HCl]	63%	86%	74%	82%	–	–	–	–	–	–	–	–	–
ammonium heptamolybdate [(NH4)6Mo7O24, reference compound]	28%	47%	33%	40%	38 nM	18 ± 2%	53 ± 3%	34 ± 1%	51 ± 1%	−7.24 ± 0.06	58 nM	−7.59 ± 0.13	Log IC50 ± SD LAR ([1]; logarithm of IC50): −7.42 ± 0.04; IC50 [2]: 26 nM; Log IC50 ± SD SHP2 ([2]; logarithm of IC50): −7.58 ± 0.04; IC50 [4]: 26 nM

Source: paper PMC10892041, “Vanadium Complexes with Thioanilide Derivatives of Amino Acids: Inhibition of Human Phosphatases and Specificity in Various Cell Models of Metabolic Disturbances” (Pharmaceuticals, 2024)
